The test addresses human Autotaxin protein (Homo sapiens, UniProt Q13822). Briefly: Evaluation of inhibitory activity against human Autotaxin protein (18:1 LysoPC substrate, choline assay kit, absorbance 570 nm). Type of test: biochemical. The conditions noted are these: compound at 500 nM, 2 hours at 37° C. The procedure:
The solution of each synthesized compound (80 uM, 100% dimethyl sulfoxide) was sequentially diluted 5 times with dimethyl sulfoxide to prepare 6 concentrations. Each concentration of compound was diluted two-fold with 1× test buffer (50 mM Tris-Cl (pH 8.0), 5 mM KCl, 1 mM CaCl2), 1 mM MgCl2, 140 mM NaCl, deionized water, 1 mg/mL BSA), and 1 uL (1.25% dimethyl sulfoxide) of this diluted mixture was dispensed into each well of a 96 well clear round bottom plate. 9 uL of 1× test buffer were added to each well, followed by the addition of 20 uL of 240 nM human Autotaxin protein (buffer: 50 mM Tris-HCl, pH 8.0, with 150 mM sodium chloride and 20% glycerol). 10 uL of sonicated 360 uM 18:1 LysoPC (diluted with 1× test buffer) were added to each well. The reaction was performed for 2 hours in a shaking incubator at 37° C., and a secondary reaction mixture (choline assay kit, KA1662) (65 uL of 1× test buffer: 1 uL of choline oxidase: 1 uL of dye probe) was prepared. 60 uL of the secondary reaction mixture were added to the reaction plate and reacted on a shaker for 30 minutes. Using a SpectraMax iD3 microplate reader, the absorbance was measured at a wavelength of 570 nm. The percentage of inhibition activity (% inhibition) was calculated by the Formula: (1−Absorbancetestgroup/Absorbancecontrol group)×100.

The structures appear in SMILES notation.

With `c1ccc(CNc2ncc(C3CC(N4CCC(c5cnn[nH]5)CC4)=NO3)cn2)cc1` (stereo not drawn) [Example 42, N-benzyl-5-[3-[4-(1H-triazol-5-yl)-1-piperidyl]-4,5-dihydroisoxazol-5-yl]pyrimidin-2-amine], the “inhibition (%) at 500 nM” value is on record as 8.6%.
The molecule `Cc1nc(NC2Cc3ccc(Br)cc3C2)ncc1-c1nnc(N2CCC(c3cnn[nH]3)CC2)o1` (stereo not drawn) [Example 60, 5-(5-(4-(1H-1,2,3-triazol-5-yl)piperidin-1-yl)-1,3,4-oxadiazol-2-yl)-N-(5-bromo-2,3-dihydro-1H-inden-2-yl)-4-methylpyrimidin-2-amine] returned an inhibition at 0.5 µM of 95.3%.
For the molecule `Brc1ccc2c(c1)CC(Nc1ccc(-c3nnc(N4CCC(c5cnn[nH]5)CC4)o3)cn1)C2` (stereo not drawn) [Example 12, 5-(5-(4-(1H-1,2,3-Triazol-5-yl)piperidin-1-yl)-1,3,4-oxadiazol-2-yl)-N-(5-bromo-2,3-dihydro-1H-inden-2-yl)pyridin-2-amine], the inhibition at 0.5 µM is 84%.
`c1ccc2c(c1)CC(Nc1ncc(C3CC(N4CCC(c5nnn[nH]5)CC4)=NO3)cn1)C2` (stereo not drawn) [Example 50, 5-(3-(4-(1H-tetrazol-5-yl)piperidin-1-yl)-4,5-dihydroisoxazol-5-yl)-N-(2,3-dihydro-1H-inden-2-yl)pyrimidin-2-amine] registered an inhibition at 0.5 µM of 7%.
The molecule `Brc1ccc2c(c1)CC(Nc1cnc(-c3nnc(N4CCC(c5cnn[nH]5)CC4)o3)cn1)C2` (stereo not drawn) [Example 13, 5-(5-(4-(1H-1,2,3-Triazol-5-yl)piperidin-1-yl)-1,3,4-oxadiazol-2-yl)-N-(5-bromo-2,3-dihydro-1H-inden-2-yl)pyrazin-2-amine] registered an inhibition at 0.5 µM of 75%.
With `Cn1nncc1C1CCN(c2nnc(-c3cnc(NC4Cc5cc(F)c(F)cc5C4)nc3)o2)CC1` [Example 33, N-(5,6-difluoro-2,3-dihydro-1H-inden-2-yl)-5-(5-(4-(1-methyl-1H-1,2,3-triazol-5-yl)piperidin-1-yl)-1,3,4-oxadiazol-2-yl)pyrimidin-2-amine], the inhibition at 0.5 µM worked out at 78.4%.
`Fc1cc2c(cc1F)CC(Nc1ncc(-c3nnc(N4CCC(c5nnc(C(F)F)o5)CC4)o3)cn1)C2` [Example 25, N-(5,6-difluoro-2,3-dihydro-1H-inden-2-yl)-5-(5-(4-(5-(difluoromethyl)-1,3,4-oxadiazol-2-yl)piperidin-1-yl)-1,3,4-oxadiazol-2-yl)pyrimidin-2-amine] showed an inhibition at 0.5 µM of 31.1%.
Turning to `O=C(CCc1cnc(NC2Cc3ccccc3C2)nc1)N1CCC(c2cnc[nH]2)CC1` [Example 18, 1-(4-(1H-Imidazol-5-yl)piperidin-1-yl)-3-(2-((2,3-dihydro-1H-inden-2-yl)amino)pyrimidin-5-yl)propan-1-one], 0.5 µM produced 85% inhibition.
Turning to `Cc1nn[nH]c1C1CCN(c2nnc(-c3cnc(NC4Cc5cc(F)c(F)cc5C4)nc3)o2)CC1` [Example 29, N-(5,6-difluoro-2,3-dihydro-1H-inden-2-yl)-5-(5-(4-(4-methyl-1H-1,2,3-triazol-5-yl)piperidin-1-yl)-1,3,4-oxadiazol-2-yl)pyrimidin-2-amine], the inhibition at 0.5 µM is 90.8%.
Still for that read-out and setting: the result for `c1cc2c(cc1CNc1ncc(C3CC(N4CCC(c5cnn[nH]5)CC4)=NO3)cn1)OCO2` (stereo not drawn) [Example 45, 5-(3-(4-(1H-1,2,3-triazol-5-yl)piperidin-1-yl)-4,5-dihydroisoxazol-5-yl)-N-(benzo[d][1,3]dioxol-5-ylmethyl)pyrimidin-2-amine] reads 1.6%.
The molecule `Clc1ccc2c(c1)CC(Nc1ncc(-c3nnc(N4CCC(c5cnn[nH]5)CC4)o3)cn1)C2` (stereo not drawn) [Example 3, 5-(5-(4-(1H-1,2,3-Triazol-5-yl)piperidin-1-yl)-1,3,4-oxadiazol-2-yl)-N-(5-chloro-2,3-dihydro-1H-inden-2-yl)pyrimidin-2-amine] came in with an inhibition at 0.5 µM of 100%.
For `O=C(COCc1nnc(NC2Cc3ccccc3C2)s1)N1CCC(c2cnn[nH]2)CC1` [Example 23, 1-(4-(1H-1,2,3-Triazol-5-yl)piperidin-1-yl)-2-((5-((2,3-dihydro-1H-inden-2-yl)amino)-1,3,4-thiadiazol-2-yl)methoxy)ethanone], the inhibition at 0.5 µM amounted to 20%.
`O=C(CCCc1nnc(NC2Cc3ccccc3C2)s1)N1CCC(c2cnc[nH]2)CC1` [Example 20, 1-(4-(1H-Imidazol-5-yl)piperidin-1-yl)-4-(5-((2,3-dihydro-1H-inden-2-yl)amino)-1,3,4-thiadiazol-2-yl)butan-1-one] returned an inhibition at 0.5 µM of 14%.
Take `FC(F)c1nnc(C2CCN(C3=NOC(c4cnc(NC5Cc6ccccc6C5)nc4)C3)CC2)o1` (stereo not drawn) [Example 51, 5-(3-(4-(5-(Difluoromethyl)-1,3,4-oxadiazol-2-yl)piperidin-1-yl)-4,5-dihydroisoxazol-5-yl)-N-(2,3-dihydro-1H-inden-2-yl)pyrimidin-2-amine]: the inhibition at 0.5 µM is 13.2%.
On the same count and under the same terms, the value for `O=C(O)C1CCN(c2nnc(-c3cnc(NC4Cc5cc(F)c(F)cc5C4)nc3)o2)CC1` [Example 67, 1-(5-(2-((5,6-Difluoro-2,3-dihydro-1H-inden-2-yl)amino)pyrimidin-5-yl)-1,3,4-oxadiazol-2-yl)piperidine-4-carboxylic acid] was 30.9%; that for `Brc1cc(Br)cc(CNc2ncc(-c3nnc(N4CCC(c5cnn[nH]5)CC4)o3)cn2)c1` [Example 59, 5-(5-(4-(1H-1,2,3-triazol-5-yl)piperidin-1-yl)-1,3,4-oxadiazol-2-yl)-N-(3,5-dibromobenzyl)pyrimidin-2-amine] was 98.5%.
On to `Brc1ccc2c(c1)CC(Nc1ncc(-c3nnc(N4CCC(c5cnn[nH]5)CC4)o3)cn1)C2` (stereo not drawn) [Example 4, 5-(5-(4-(1H-1,2,3-Triazol-5-yl)piperidin-1-yl)-1,3,4-oxadiazol-2-yl)-N-(5-bromo-2,3-dihydro-1H-inden-2-yl)pyrimidin-2-amine], for which the inhibition at 0.5 µM was determined as 90%.
In turn, `c1ccc2c(c1)CC(Nc1ncc(-c3nnc(N4CCC(c5cnn[nH]5)CC4)o3)cn1)C2` [Example 1, 5-(5-(4-(1H-1,2,3-Triazol-5-yl)piperidin-1-yl)-1,3,4-oxadiazol-2-yl)-N-(2,3-dihydro-1H-inden-2-yl)pyrimidin-2-amine] returned an inhibition at 0.5 µM of 99%.
Molecule `Cc1nc(NC2Cc3cc(Br)c(Br)cc3C2)ncc1-c1nnc(N2CCC(c3cnn[nH]3)CC2)o1` [Example 61, 5-(5-(4-(1H-1,2,3-triazol-5-yl)piperidin-1-yl)-1,3,4-oxadiazol-2-yl)-N-(5,6-dibromo-2,3-dihydro-1H-inden-2-yl)-4-methylpyrimidin-2-amine] came in with an inhibition at 0.5 µM of 70%.
`CN(c1ncc(-c2nnc(N3CCC(c4cnn[nH]4)CC3)o2)cn1)C1Cc2cc(F)c(F)cc2C1` [Example 32, 5-(5-(4-(1H-1,2,3-triazol-5-yl)piperidin-1-yl)-1,3,4-oxadiazol-2-yl)-N-(5,6-difluoro-2,3-dihydro-1H-inden-2-yl)-N-methylpyrimidin-2-amine] had an inhibition at 0.5 µM of 34.3%.
With `c1ccc2c(c1)CC(Nc1ccc(-c3nnc(N4CCC(c5cnn[nH]5)CC4)o3)nn1)C2` [Example 8, 6-(5-(4-(1H-1,2,3-Triazol-5-yl)piperidin-1-yl)-1,3,4-oxadiazol-2-yl)-N-(2,3-dihydro-1H-inden-2-yl)pyridazin-3-amine], the inhibition at 0.5 µM is 14%.
As for `CS(=O)(=O)c1ccc(CNc2ncc(C3CC(N4CCC(c5cnn[nH]5)CC4)=NO3)cn2)cc1` (stereo not drawn) [Example 49, 5-(3-(4-(1H-1,2,3-triazol-5-yl)piperidin-1-yl)-4,5-dihydroisoxazol-5-yl)-N-(4-(methylsulfonyl)benzyl)pyrimidin-2-amine], the inhibition at 0.5 µM was determined as 1.2%.
Molecule `Fc1ccc2c(c1)CC(Nc1ncc(-c3cc(N4CCC(c5cnn[nH]5)CC4)no3)cn1)C2` (stereo not drawn) [Example 40, 5-(3-(4-(1H-1,2,3-triazol-5-yl)piperidin-1-yl)isoxazol-5-yl)-N-(5-fluoro-2,3-dihydro-1H-inden-2-yl)pyrimidin-2-amine] had an inhibition at 0.5 µM of 68.5%.
`Cc1ncn(C2CCN(c3nnc(-c4cnc(NC5Cc6ccccc6C5)nc4)o3)CC2)n1` [Example 10, N-(2,3-dihydro-1H-inden-2-yl)-5-(5-(4-(3-methyl-1H-1,2,4-triazol-1-yl)piperidin-1-yl)-1,3,4-oxadiazol-2-yl)pyrimidin-2-amine] came in with an inhibition at 0.5 µM of 75%.
`Fc1cc2c(cc1F)CC(Nc1ncc(-c3nnc(N4CCC(c5ncon5)CC4)o3)cn1)C2` [Example 26, 5-(5-(4-(1,2,4-Oxadiazol-3-yl)piperidin-1-yl)-1,3,4-oxadiazol-2-yl)-N-(5,6-difluoro-2,3-dihydro-1H-inden-2-yl)pyrimidin-2-amine] showed an inhibition at 0.5 µM of 27.9%.
In the case of `Clc1cc2c(cc1Cl)CC(Nc1ncc(-c3nnc(N4CCC(c5cnn[nH]5)CC4)o3)cn1)C2` [Example 6, 5-(5-(4-(1H-1,2,3-Triazol-5-yl)piperidin-1-yl)-1,3,4-oxadiazol-2-yl)-N-(5,6-dichloro-2,3-dihydro-1H-inden-2-yl)pyrimidin-2-amine], the inhibition at 0.5 µM was determined as 91%.
For `c1cc2c(cc1CNc1ncc(-c3cc(N4CCC(c5cnn[nH]5)CC4)no3)cn1)OCO2` [Example 46, N-(1,3-benzodioxol-5-ylmethyl)-5-[3-[4-(1H-triazol-5-yl)-1-piperidyl]isoxazol-5-yl]pyrimidin-2-amine], the “inhibition (%) at 500 nM” value is listed as 1%.

In general, inhibition refers to the percentage by which the read-out fell short of the control. Read a low inhibition as little suppression.

Values taken from patent US12145929B2, “Piperidine derivative and pharmaceutical composition for inhibiting autotaxin comprising same” (NEXTGEN BIOSCIENCE CO., LTD., priority 2021, dated 2024).
